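Growth conditions: 96-well plates. Treatment: test compound, 48 hours, 5 concentrations. Analysis: linear interpolation between bracketing concentrations; unreached endpoints set to highest concentration. GI50 is the concentration that inhibits growth by half. TGI: total growth inhibition.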
Key:
Test in all cases: NCI anticancer screen, dose series, 48 h
786-0 renal = tested on: 786-0 renal
A498 renal = tested on: A498 renal
CCRF-CEM leukemia = tested on: CCRF-CEM leukemia
COLO 205 colon = tested on: COLO 205 colon
EKVX NSCLC = tested on: EKVX NSCLC
HT29 colon = tested on: HT29 colon
MCF7 breast = tested on: MCF7 breast
RPMI-8226 leukemia = tested on: RPMI-8226 leukemia
SNB-19 CNS = tested on: SNB-19 CNS
SW-620 colon = tested on: SW-620 colon

Compound | GI50 (786-0 renal) | TGI (786-0 renal) | GI50 (A498 renal) | TGI (A498 renal) | GI50 (CCRF-CEM leukemia) | TGI (CCRF-CEM leukemia) | GI50 (COLO 205 colon) | TGI (COLO 205 colon) | GI50 (EKVX NSCLC) | TGI (EKVX NSCLC) | GI50 (HT29 colon) | TGI (HT29 colon) | GI50 (MCF7 breast) | TGI (MCF7 breast) | GI50 (RPMI-8226 leukemia) | TGI (RPMI-8226 leukemia) | GI50 (SNB-19 CNS) | TGI (SNB-19 CNS) | GI50 (SW-620 colon) | TGI (SW-620 colon)
NCCCOc1cc2ccccc2cc1C(=O)NCCCOc1cc2ccccc2cc1C(=O)Nc1ccc(Cl)cc1O | 0.199 µM | 0.441 µM | 0.552 µM | 1.99 µM | 0.334 µM | 11.5 µM | 1.7 µM | 3.34 µM | 0.74 µM | 2.43 µM | 0.411 µM | 1.61 µM | 0.183 µM | 0.349 µM | 0.578 µM | 7.09 µM | 0.72 µM | 2.88 µM | 0.189 µM | 0.381 µM
COc1cc(/C=C/C(=O)C(C(=O)/C=C/c2ccc(OC(=O)CCNC34CC5CC(CC(C5)C3)C4)c(OC)c2)C(=O)CCNC23CC4CC(CC(C4)C2)C3)ccc1OC(=O)CCNC12CC3CC(CC(C3)C1)C2 (centres undefined) | 4.19 µM | > 100 µM | 3.47 µM | 13.6 µM | 1.65 µM | 4.12 µM | 4.27 µM | 17.8 µM | 2.95 µM | 8.97 µM | 1.69 µM | 3.24 µM | 1.97 µM | 6.28 µM | 2.12 µM | 5.02 µM | 4.07 µM | 15.9 µM | 2.42 µM | 6.48 µM
CN1C(NNC(=O)c2cccnc2)=NS(=O)(=O)c2cc(Cl)ccc21 | > 100 µM | > 100 µM | > 100 µM | > 100 µM | > 100 µM | > 100 µM | > 100 µM | > 100 µM | > 100 µM | > 100 µM | > 100 µM | > 100 µM | > 100 µM | > 100 µM | > 100 µM | > 100 µM | > 100 µM | > 100 µM | > 100 µM | > 100 µM
COc1ccc(-c2nn(-c3cccc(Cl)c3)cc2-c2nc(N)[nH]c(=O)c2C#N)cc1 | 4.65 µM | 33.5 µM | 1.47 µM | 6.75 µM | 3.65 µM | 33.8 µM | 7.65 µM | 20.9 µM | 3.29 µM | 35.4 µM | 4.29 µM | 20 µM | 3.54 µM | 28.5 µM | 5.63 µM | 55.5 µM | 4.58 µM | > 100 µM | 4.38 µM | 34.2 µM
Oc1ccc(/C=C/c2cc(O)cc3c2C(c2cc(O)cc(O)c2)C(c2ccc(O)c(O)c2)O3)cc1 (centres undefined) | – | > 100 µM | – | > 100 µM | – | > 100 µM | – | 45.1 µM | – | > 100 µM | – | 47.6 µM | – | > 100 µM | – | 40.6 µM | – | 54.3 µM | – | > 100 µM
COc1ccc2c(c1)C(C)Cc1c(ncnc1-n1cnc3ccccc31)N2C (centres undefined) | 0.591 µM | 19.6 µM | 0.234 µM | 10.2 µM | 0.481 µM | 20.5 µM | 0.33 µM | 1.37 µM | 0.632 µM | 20 µM | 0.336 µM | 1.43 µM | 0.313 µM | 14 µM | 0.556 µM | 27.6 µM | 0.695 µM | 27.5 µM | 0.379 µM | 17.8 µM
Oc1ccc(Oc2cnc3ccccc3n2)cc1 | > 100 µM | > 100 µM | 37.2 µM | > 100 µM | 24.2 µM | > 100 µM | > 100 µM | > 100 µM | 67 µM | > 100 µM | > 100 µM | > 100 µM | > 100 µM | > 100 µM | > 100 µM | > 100 µM | > 100 µM | > 100 µM | > 100 µM | > 100 µM
NCCCn1c2c(c3ccccc3c1=O)C(=O)c1ccccc1-2 | 0.119 µM | 1.01 µM | 0.0481 µM | 0.919 µM | < 0.0462 µM | 0.375 µM | 0.105 µM | 2.88 µM | 0.539 µM | 2.9 µM | 0.128 µM | 15.4 µM | 0.0728 µM | 18 µM | – | 0.528 µM | 0.0857 µM | 3.43 µM | 0.0713 µM | 5.83 µM

From PubChem BioAssay (NCI)
